# Assay results published in patent US20130004581A1, “CONTROLLING UPTAKE BY CELLS” (Ramot at Tel-Aviv University Ltd., priority 2010, published 2013).
# Columns and labels:
# COS 5-7 cells [1] = test: Uptake after one minute of electric pulse train (EPT) in three-compartment device, FACS; format: cell-based, African green monkey; details: for Folds Uptake mean: electric field 200 mA/cm^2; for Folds Uptake mean / Folds Uptake Fold: 1 min, 10 μM Dextran-FITC; for Folds Uptake Fold: relative to unexposed cells
# Description: The values in the tables are shown as folds relative to the uptake in cells unexposed to any of the treatments.
# Exposure of cells to low-intensity trains of unipolar rectangular voltage pulses was carried in a three-compartment exposure set-up where the anode and cathode were connected to an electric pulse generator (Grass S44 Stimulator). The exposure set-up consisted of a rectangular chamber made from polystyrene, 15 mm long, 10 mm wide, with 0.5 cm^2 area platinum electrodes positioned on the extreme sides (see FIG. 15). The chamber is divided by two porous membranes (PolyEtherSulfon, 0.8 μm pores, 200 μm depth), into three distinct and equal compartments: anode, cathode and center ones. The electric field parameters applied were monitored on line by recording the voltage and the current (by means of a wide band current probe, Pearson) on an oscilloscope. Typically, a cell suspension (1*10^6 cells/ml) is exposed to a train of electric pulses consisting of unipolar rectangular pulses with duration of 180 μs, frequency of 500 Hz for the total time of exposure of one minute.
# Cells (COS 5-7) were harvested, re-suspended in DMEM (1 mg/ml glucose, 5% FCS), and incubated (37°, 5% CO2) as designated by the experiment. For uploading the cells with either H2DCF-DA (20 μM) or Bis-DHA (1 mM) incubation lasted 90 minutes. When no pre-treatments were required, the cells were kept in the DMEM for 30 minutes. Following incubation, the cells were centrifuged at 400g for 1 min, the solution aspirated, and cells re-suspended in HBSS exposure media.
# Cell suspensions were centrifuged (400g for one minute), their solutions aspirated and they were re-suspended with 0.5 ml DMEM-H supplemented with 10u/ml dextranase (Sigma-Aldrich) for 10 minutes at RT. Cells were centrifuged again; their solution aspirated and they were re-suspended with 0.2 ml DMEM-H. PI (25 μg/ml) as a label for permeabilized cells and tryphan blue (0.01% w/v) as a fluorescence quenching agent for extracellular FITC (36) were added to each sample shortly before analysis
# Flow cytometry analysis was carried out by FACSort (Becton @ Dickson, San Jose, Calif.), employing a 488-nm argon laser excitation. […] Ten thousand cells were examined for each sample and data were collected in the list mode. The analysis of flow cytometry data was performed using WINMDI 2.9 software (Joe Trotter, The Scripps Research Institute). For each sample the geometrical mean was calculated without including PI stained cells. Cell intensity was determined as fold of induction relative to cells' constitutive uptake.
# HaCaT cells = test: Proton induced uptake (PIU) in HaCaT cells, FACS; format: cell-based, human; details: pH 5.25; pulse label for last 5 minutes
# Description: FIG. 6 is a chart showing PIU of molecules different by size and charge, in accordance with some embodiments of the invention. Hacat cultures were exposed to solutions of pH 5.2 or pH 7.4 for 5 minutes period, in the presence of different fluorescence molecules (All at 25 μM concentration). FACS analysis results (FL1, geometrical mean±SD) for the cell cultures exposed to pH 5.2 are presented as fold induction relative to results obtained for cells exposed to pH 7.4. This can be used, in some embodiments of the invention, to assess effect of molecule size and charge on uptake.
# FIGS. 7A-7B are charts showing the comparison of PIU in adherent and suspended HaCaT cells, in accordance with some embodiments of the invention. For FIG. 7A, HaCaT cells were tested either at their adherent state, or following harvest at a suspended state. […] FACS analyses (FL1) in terms of geometrical mean±SD are presented as fold induction relative to the constitutive uptake at physiological pH 7.4. n=9 in 3 independent experiments. For FIG. 7B, HaCaT Cells were cultivated at low, medium or high cell density. […] The cultures were harvested and undergone FACS analyses (FL1) in terms of geometrical mean±SD and are presented as fold induction relative to the constitutive uptake of low density cultures. Statistical significance was tested against the confluent culture, n=9 in 3 independent experiments. In the charts, * indicates a t-test p<0.05; and ** indicates a t-test p<0.01. This can be used, in some embodiments of the invention, to assess effect of cell membrane rigidity and/or tissue structure on uptake.
# FIGS. 12A-12B are a chart and images which show the relative change of PIU by modifiers of actin cytoskeleton organization, in accordance with some embodiments of the invention. […].
# Caco2/TC7 cells = test: Proton induced uptake (PIU) in Caco2/TC7 cells, FACS; format: cell-based; details: pH 5; 5 minutes; P<0.001
# Description: Caco-2 cells were cultivated, and were harvested when reaching 80% confluence by the use of trypsin-EDTA. The cell suspensions were immediately diluted in full medium (DMEM with 4.5 mg/ml glucose, 10% FCS), centrifuged and re-suspended in recovery medium (HBSS or PBS).
# Once exposure is terminated the suspension is transferred to a small vial where it is either incubated at 37° C. or immediately cooled down to 4° C. All samples are collected together on ice and then simultaneously analyzed.
# Acidification is imposed by supplementing the suspension with 10 mM MES buffer and the concentrations of HCl required for reaching the experimental pH level.
# The cells are washed by being centrifuged, re-suspended with fresh DMEM (without phenol-red or FCS), incubated at room temperature with probe specific digestive enzymes, where appropriate, centrifuged and washed again.
# For FACS analysis, Trypan-blue (0.01%) and PI (2 μg/ml) are added to the cells suspension to quench residual extracellular fluorescence and stain necrotic cells, respectively.
# COS 5-7 cells [2] = test: Proton induced uptake (PIU) in adherent COS 5-7 cultures, 5 minutes, FACS; format: cell-based, African green monkey; details: pH 5, P<0.001
# Description: Uptake, based on flow cytometry, is plotted as function of the external pH from 3 independent experiments per cell line.
# FIG. 1A is shown the Extent of uptake in terms of FITC intensity geometrical mean±SD is presented as fold induction relative to the constitutive uptake at physiological pH 7.4. In FIG. 1B is shown the PI (a necrotic cell marker) stained cells fraction±SD (%) relative to unexposed control population. In FIG. 1C is shown the FITC geometrical mean±SD presented as fold induction relative to the constitutive uptake at physiological pH 7.4.
substance,measurement,setting,value
Dextran-FITC,Folds Uptake mean,COS 5-7 cells [1]; 60 mM HEPES in HBSS,51.98 folds
same,Folds Uptake mean,COS 5-7 cells [1]; 70 mM HEPES in HBSS,48.84 folds
same,Folds Uptake mean,COS 5-7 cells [1]; 80 mM HEPES in HBSS,14.86 folds
same,Folds Uptake mean,COS 5-7 cells [1]; 90 mM HEPES in HBSS,12.81 folds
same,Folds Uptake mean,COS 5-7 cells [1]; 100 mM HEPES in HBSS,10.06 folds
same,Folds Uptake mean,COS 5-7 cells [1]; 120 mM HEPES in HBSS,4.613 folds
same,Folds Uptake mean,COS 5-7 cells [1]; 150 mM HEPES in HBSS,3.106 folds
same,Folds Uptake Fold,"COS 5-7 cells [1]; 10 V/cm, 80 mA/cm^2",1.62 folds
same,Folds Uptake Fold,"COS 5-7 cells [1]; 13.3 V/cm, 120 mA/cm^2",2.449 folds
same,Folds Uptake Fold,"COS 5-7 cells [1]; 16.6 V/cm, 160 mA/cm^2",6.017 folds
same,Folds Uptake Fold,"COS 5-7 cells [1]; 20 V/cm, 80 mA/cm^2",1.824 folds
same,Folds Uptake Fold,"COS 5-7 cells [1]; 20 V/cm, 120 mA/cm^2",3.015 folds
same,Folds Uptake Fold,"COS 5-7 cells [1]; 20 V/cm, 160 mA/cm^2",5.476 folds
same,Folds Uptake Fold,"COS 5-7 cells [1]; 20 V/cm, 200 mA/cm^2, 100 mM HEPES",9.134 folds
same,Folds Uptake Fold,"COS 5-7 cells [1]; 26.6 V/cm, 200 mA/cm^2",11.73 folds
same,Folds Uptake Fold,"COS 5-7 cells [1]; 33.3 V/cm, 200 mA/cm^2",10.49 folds
same,Folds Uptake Fold,"COS 5-7 cells [1]; 46.6 V/cm, 80 mA/cm^2",1.694 folds
same,Folds Uptake Fold,"COS 5-7 cells [1]; 46.6 V/cm, 160 mA/cm^2",6.34 folds
same,Folds Uptake Fold,"COS 5-7 cells [1]; 66.6 V/cm, 120 mA/cm^2",3.447 folds
same,increase in cellular uptake in the anodic compartment,"COS 5-7 cells [1]; train of electric pulses 20V/cm, 200 mA/cm^2, anodic compartment only, relative to constitutive uptake",10 fold
same,"initial PIU rate of adherent cultures, folds lower than suspended cells",HaCaT cells,2.5 folds
same,dextran concentration relative to HT29 cells,Caco2/TC7 cells,2 folds
same,dextran concentration relative to HT29 cells,COS 5-7 cells [2],2 folds
